Source: USRE28744E, “Crystalline p-hydroxyampicillin and salts thereof” (priority 1968, dated 1976)
In brackets after ≈: the same amount, converted by molar mass.

How the values were obtained:
[1] = system: Shigella flexneri; test: in vitro antibacterial screening, M.I.C., Shigella flexneri; type: cell-based; conditions: for MIC: Shigella flexneri
Excerpt: (§1) The four resulting hydroxypenicillins were then submitted to in vitro antibacterial screening in comparison with the two epimers of α-aminobenzylpenicillin.

[2] = system: Salm. typhi; test: in vitro antibacterial screening, M.I.C., Salm. typhi; type: cell-based; conditions: for MIC: Salmonella enterica, TYPHI, read-out: M.I.C. Salm. typhi, in vitro; for M.I.C. Salm. typhi: in vitro
Excerpt: as §1

[3] = system: Proteus mirabilis; test: in vitro antibacterial screening, M.I.C., Proteus mirabilis; type: cell-based
Excerpt: as §1

[4] = system: E.Coli; test: in vitro antibacterial screening, M.I.C., E.Coli; type: cell-based; conditions: for MIC: Escherichia coli
Excerpt: as §1

[5] = clinical; conditions: human, urine, po, 500 mg
Description: (§2) The two penicillins were then compared with ampicillin in absorption studies in human volunteers. Groups of fasting volunteers were each given 500 mg. of the appropriate penicillin by mouth in capsules, and blood samples were withdrawn at regular intervals and assayed biologically to determine the serum concentration of the penicillins. The urine was also collected over a 6 hour period and similarly assayed to determine the proportion of the dose excreted via the kidneys.

[6] = system: Kleb. pneum; test: in vitro antibacterial screening, M.I.C., Kleb. pneum; type: cell-based
Excerpt: as §1

[7] = system: E. coli 37; test: serial dilution in nutrient agar, synergy M.I.C., E. coli 37; type: cell-based; conditions: in the presence of 100 μg./ml. Nafcillin
Description: (§3) Results were obtained by serial dilution in nutrient agar. The inoculum was one drop of an overnight broth culture, and M.I.C. values were read after 18 hours at 37°C.

[8] = system: Paracolon 232; test: serial dilution in nutrient agar, synergy M.I.C., Paracolon 232; type: cell-based; conditions: in the presence of 100 μg./ml. Methicillin
Description: as §3

[9] = absorption studies in human volunteers (oral); conditions: serum, 500 mg
Description: as §2

[10] = system: Klebsiella C 978; test: serial dilution in nutrient agar, synergy M.I.C., Klebsiella C 978; type: cell-based
Description: as §3

[11] = system: Proteus morganii G; test: serial dilution in nutrient agar, synergy M.I.C., Proteus morganii G; type: cell-based
Description: as §3

[12] = system: Proteus vulgaris K; test: serial dilution in nutrient agar, synergy M.I.C., Proteus vulgaris K; type: cell-based
Description: as §3

[13] = system: E. coli 2; test: inhibition of E. coli 2; type: cell-based; conditions: Escherichia coli, product contaminated with approximately 5% of 6-aminopenicillanic acid, read-out: concentration inhibiting E. coli 2
[14] = system: Staph. Oxford; test: inhibition of Staph. Oxford; type: cell-based; conditions: product contaminated with approximately 5% of 6-aminopenicillanic acid; read-out: concentration inhibiting Staph. Oxford
[15] = system: Gram-negative bacteria; conditions: 100 μg./ml.
Description: as §3

[16] = comparison within series; cited from earlier work
[17] = in the presence of 100 μg./ml. Dicloxacillin
[18] = in the presence of 100 μg./ml. Flucloxacillin
[19] = in the presence of 100 μg./ml. Methicillin

CC1(C)S[C@@H]2[C@H](NC(=O)[C@H](N)c3ccccc3)C(=O)N2[C@H]1C(=O)O [Ampicillin, D(-)-epimer of α-aminobenzyl penicillin]
MIC [1]: 12.5 µg/mL (≈ 35.8 µM) | MIC [2]: 0.6 µg/mL (≈ 1.72 µM) | MIC ([3]; Proteus mirabilis): 1.25 µg/mL (≈ 3.58 µM) | MIC [4]: 5 µg/mL (≈ 14.3 µM) | dose excreted at 6 h [5]: 42% | MIC [6]: 2.5 µg/mL (≈ 7.15 µM)

CC1(C)S[C@@H]2[C@H](NC(=O)[C@H](N)c3ccc(O)cc3)C(=O)N2[C@H]1C(=O)O [Example 3, 6-[(-)α-amino-p-hydroxyphenylacetamido]Penicillanic Acid]
Minimum inhibitory concentration, E. coli 37 [7]: 2.5 µg/mL | MIC [1]: 2.5 µg/mL (≈ 6.84 µM) | Minimum inhibitory concentration, Paracolon 232 [8]: 2.5 µg/mL | concentration at 0.5 h [9]: 2900 ng/mL | concentration at 1 h [9]: 8250 ng/mL | concentration at 2 h [9]: 10800 ng/mL | concentration at 4 h [9]: 3100 ng/mL | concentration at 6 h [9]: 1130 ng/mL | Minimum inhibitory concentration, Klebsiella C 978 ([10]; None (alone), 18 hours at 37°C): 250 µg/mL | Minimum inhibitory concentration, Klebsiella C 978 ([10]; in the presence of 100 μg./ml. Cloxacillin): 50 µg/mL | Minimum inhibitory concentration, Klebsiella C 978 [10, 17]: 50 µg/mL | Minimum inhibitory concentration, Klebsiella C 978 [10, 18]: 25 µg/mL | Minimum inhibitory concentration, Klebsiella C 978 [10, 19]: 50 µg/mL | Minimum inhibitory concentration, Klebsiella C 978 ([10]; in the presence of 100 μg./ml. Nafcillin): 50 µg/mL | MIC [4]: 5 µg/mL (≈ 13.7 µM) | Minimum inhibitory concentration, Proteus morganii G ([11]; None (alone), 18 hours at 37°C): 250 µg/mL | Minimum inhibitory concentration, Proteus morganii G [11, 17]: 5.0 µg/mL | Minimum inhibitory concentration, Proteus morganii G [11, 18]: 5.0 µg/mL | dose excreted at 6 h [5]: 74.5% | Minimum inhibitory concentration, Proteus vulgaris K ([12]; None (alone), 18 hours at 37°C): 250 µg/mL | Minimum inhibitory concentration, Proteus vulgaris K [12, 17]: 2.5 µg/mL | Minimum inhibitory concentration, Proteus vulgaris K [12, 18]: 5.0 µg/mL | Minimum inhibitory concentration, Proteus vulgaris K [12, 19]: 50 µg/mL

CC1(C)S[C@@H]2[C@H](NC(=O)[C@@H](N)c3ccc(O)cc3)C(=O)N2[C@H]1C(=O)O [Example 4, 6[(+)α-amino-p-hydroxyphenylacetamido]penicillanic Acid]
MIC [4]: 25 µg/mL (≈ 68.4 µM)

CC1(C)S[C@@H]2C(NC(=O)C(N)c3cccc(O)c3)C(=O)N2[C@H]1C(=O)O (stereo partly drawn) [Example 7, 6[(-)α-amino-m-hydroxyphenylacetamido]penicillanic Acid]
M.I.C. Shigella flexneri ([1]; listed as m OH -): 2.5 µg/mL | concentration at 0.5 h [9]: 910 ng/mL | concentration at 1 h [9]: 2500 ng/mL | concentration at 2 h [9]: 2860 ng/mL | concentration at 4 h [9]: 1150 ng/mL | concentration at 6 h [9]: 440 ng/mL | M.I.C. Salm. typhi ([2]; listed as m OH -): 1.25 µg/mL | M.I.C. Proteus mirabilis ([3]; listed as m OH -): 2.5 µg/mL | M.I.C. E.Coli ([4]; listed as m OH -): 5 µg/mL | dose excreted at 6 h [5]: 31% | M.I.C. Kleb. pneum ([6]; listed as m OH -): 1.25 µg/mL

CC1(C)S[C@@H]2C(NC(=O)C(N)c3cccc(O)c3)C(=O)N2[C@H]1C(=O)O (stereo partly drawn) [Example 8, 6[(+)α-amino-m-hydroxyphenylacetamido]penicillanic Acid]
M.I.C. Shigella flexneri ([1]; listed as m OH +): 25 µg/mL | M.I.C. Salm. typhi ([2]; listed as m OH +): 12.5 µg/mL | M.I.C. Proteus mirabilis ([3]; listed as m OH +): 25 µg/mL | M.I.C. E.Coli ([4]; listed as m OH +): 25 µg/mL | M.I.C. Kleb. pneum ([6]; listed as m OH +): 12.5 µg/mL

CC1(C)S[C@@H]2[C@H](NC(=O)[C@H](N)c3ccc(OC(=O)OCc4ccccc4)cc3)C(=O)N2[C@H]1C(=O)O [Example 12, 6-[(-)-α-amino-α-(p-benzyloxycarbonyloxyphenyl)-acetamido]penicillanic acid]
MIC [13]: 5 µg/mL (≈ 10 µM) | MIC [14]: 0.1 µg/mL (≈ 0.2 µM)

CC1(C)S[C@@H]2[C@H](NC(=O)[C@@H](N)c3ccccc3)C(=O)N2[C@H]1C(=O)O [None +, reference compound]
MIC [2]: 2.5 µg/mL (≈ 7.15 µM) | MIC [4]: 12.5 µg/mL (≈ 35.8 µM) | MIC [6]: 5 µg/mL (≈ 14.3 µM)

Cc1onc(-c2ccccc2Cl)c1C(=O)N[C@@H]1C(=O)N2[C@@H]1SC(C)(C)[C@@H]2C(=O)O [cloxacillin]
inhibition of the Gram-negative bacteria by the penicillinase-resistant penicillin by itself [15]: None of these penicillinase-resistant penicillins by itself inhibits the Gram-negative bacteria at 100 μg./ml.

Cc1onc(-c2c(Cl)cccc2Cl)c1C(=O)N[C@@H]1C(=O)N2[C@@H]1SC(C)(C)[C@@H]2C(=O)O [dicloxacillin]
oral absorption of known penicillins (in words) [16]: better absorbed than cloxacillin | inhibition of the Gram-negative bacteria by the penicillinase-resistant penicillin by itself [15]: None of these penicillinase-resistant penicillins by itself inhibits the Gram-negative bacteria at 100 μg./ml.

Cc1onc(-c2c(F)cccc2Cl)c1C(=O)N[C@@H]1C(=O)N2[C@@H]1SC(C)(C)[C@@H]2C(=O)O [flucloxacillin]
inhibition of the Gram-negative bacteria by the penicillinase-resistant penicillin by itself [15]: None of these penicillinase-resistant penicillins by itself inhibits the Gram-negative bacteria at 100 μg./ml.

COc1cccc(OC)c1C(=O)N[C@@H]1C(=O)N2[C@@H]1SC(C)(C)[C@@H]2C(=O)O [methicillin]
inhibition of the Gram-negative bacteria by the penicillinase-resistant penicillin by itself [15]: None of these penicillinase-resistant penicillins by itself inhibits the Gram-negative bacteria at 100 μg./ml.

CCOc1ccc2ccccc2c1C(=O)N[C@@H]1C(=O)N2[C@@H]1SC(C)(C)[C@@H]2C(=O)O [nafcillin]
inhibition of the Gram-negative bacteria by the penicillinase-resistant penicillin by itself [15]: None of these penicillinase-resistant penicillins by itself inhibits the Gram-negative bacteria at 100 μg./ml.
